Results reported in patent publication US8309554B2 (priority 2008, dated 2012).
Structures can show the parent of a compound that is named as a salt. Where two headings read alike, the source gives them in different places.

Assays:
[1] = system: H460; assay: cells; assay type: cell-based; conditions: for IC50: Homo sapiens
[2] = system: HT29; assay: cells; assay type: cell-based; conditions: for IC50: Homo sapiens, HT-29, 2 h
[3] = NCI-H460, read-out: 2 h Air H460 monolayer IC50
[4] = NCI-H460, read-out: 2 h N2 H460 monolayer IC50
[5] = NCI-H460, 2 h, read-out: 2 hr Air H460 IC50
[6] = NCI-H460, 2 h, read-out: 2 hr N2 H460 IC50

| Compound | IC50 [1, 3] [µM] | IC50 [1, 4] [µM] | H460 HCR: Air/N2 [1] | IC50 [1, 5] [µM] | IC50 [1, 6] [µM] | HT29 HCR: Air/N2 [2] | IC50 ([2]; read-out: 2 hr Air HT29 IC50) [µM] | IC50 ([2]; read-out: 2 hr N2 HT29 IC50) [µM] |
| --- | --- | --- | --- | --- | --- | --- | --- | --- |
| CN(c1cc(F)c(N(CCCl)CCCl)c(F)c1)S(=O)(=O)Cn1ccnc1[N+](=O)[O-] [TH-1135] | 9.2 | 3.4 | – | – | – | – | – | – |
| CN(c1cc(F)c(N(CCCl)CCCl)c(F)c1)S(=O)(=O)C(C)(C)n1ccnc1[N+](=O)[O-] [TH-1136] | 5.1 | 5 | – | – | – | – | – | – |
| Cn1c(CS(=O)(=O)Nc2cc(F)c(N(CCCl)CCCl)c(F)c2)cnc1[N+](=O)[O-] [TH-1137] | 20.4 | 8.3 | – | – | – | – | – | – |
| CN(c1cc(F)c(N(CCCl)CCCl)c(F)c1)S(=O)(=O)Cc1cnc([N+](=O)[O-])n1C [TH-1138] | 34.2 | 13.5 | – | – | – | – | – | – |
| O=[N+]([O-])c1sccc1C(Cc1ccc2c(ccn2CCO)c1)S(=O)(=O)Oc1ccc(N(CCCl)CCCl)cc1 (stereo not drawn) [TH-1140] | – | – | 114 | 114 | 1 | – | – | – |
| CN(c1ccc(N(CCBr)CCBr)cc1)S(=O)(=O)Cn1ccnc1[N+](=O)[O-] [TH-1141] | 0.5 | 0.1 | – | – | – | – | – | – |
| CCc1nc([N+](=O)[O-])n(C)c1CS(=O)(=O)N(C)c1ccc(N(CCCl)CCCl)cc1 [TH-1145] | 78.2 | 3.8 | – | – | – | – | – | – |
| O=[N+]([O-])c1sccc1CS(=O)(=O)Oc1ccc(N(CCCl)CCCl)c(F)c1 [TH-1192, 3-((3-Fluoro-4-(N,N-bis-(2-chloroethyl)amino)phenoxy)sulfonyl)methyl-2-nitrothiophene] | – | – | 39 | 59.2 | 1.5 | 20 | 162 | 8 |
| O=[N+]([O-])c1sccc1C(CNS(=O)(=O)c1ccccc1)S(=O)(=O)Oc1ccc(N(CCCl)CCCl)cc1 (stereo not drawn) [TH-1218, 3-(4-(N,N-bis-(2-Chloroethyl)amino)phenoxysulfonyl-(phenylsulfonylaminomethyl))methyl-2-nitrothiophene] | – | – | 106 | 74 | 0.7 | – | > 300 | > 300 |
| Nc1ccc(CC(c2ccsc2[N+](=O)[O-])S(=O)(=O)Oc2ccc(N(CCCl)CCCl)cc2)cn1 (stereo not drawn) [TH-1255, 3-(4-(N,N-bis-(2-Chloroethyl)amino)phenoxysulfonyl-(2-aminopyridin-5-yl-methyl))methyl-2-nitrothiophene trifluoroacetate] | – | – | 30.7 | 61.4 | 2 | 16 | 204 | 13 |
| CS(=O)(=O)N(c1ccc(CC(c2ccsc2[N+](=O)[O-])S(=O)(=O)Oc2ccc(N(CCCl)CCCl)cc2)cn1)S(C)(=O)=O (stereo not drawn) [TH-1257] | – | – | 424.0 | 212 | 0.5 | – | > 300 | > 300 |
| O=[N+]([O-])c1sccc1C(Cc1ccc(NS(=O)(=O)C(F)(F)F)nc1)S(=O)(=O)Oc1ccc(N(CCCl)CCCl)cc1 (stereo not drawn) [TH-1262] | – | – | 150 | 90 | 0.6 | – | – | – |
| CC(=O)Nc1ccc(CC(c2ccsc2[N+](=O)[O-])S(=O)(=O)Oc2ccc(N(CCCl)CCCl)cc2)cn1 (stereo not drawn) [TH-1271] | – | – | 236 | 236 | 1 | 1.3 | 977 | 760 |
| CS(=O)(=O)Nc1ccc(CC(c2ccsc2[N+](=O)[O-])S(=O)(=O)Oc2ccc(N(CCCl)CCCl)cc2)cn1 (stereo not drawn) [TH-1272] | – | – | 91 | 290 | 3.2 | – | – | – |
| O=[N+]([O-])c1sccc1C(CCS(=O)(=O)c1ccccc1)S(=O)(=O)Oc1ccc(N(CCCl)CCCl)cc1 (stereo not drawn) [TH-1278] | – | – | 205 | 61.4 | 0.3 | – | > 1000 | > 1000 |
| Cc1ccc(S(=O)(=O)NCC(c2ccsc2[N+](=O)[O-])S(=O)(=O)Oc2ccc(N(CCCl)CCCl)cc2)cc1 (stereo not drawn) [TH-1312] | – | – | 31 | 122 | 3.9 | – | – | – |
| O=[N+]([O-])c1sccc1C(Cc1ccc(Cl)nc1)S(=O)(=O)Oc1ccc(N(CCCl)CCCl)cc1 (stereo not drawn) [TH-1341] | – | – | 43 | 145 | 3.4 | – | – | – |
| CC(C)(C)OC(=O)NCC(=O)Nc1ccc(CC(c2ccsc2[N+](=O)[O-])S(=O)(=O)Oc2ccc(N(CCCl)CCCl)cc2)cn1 (stereo not drawn) [TH-1351] | – | – | 49 | ~300 | 6.1 | – | – | – |
| O=[N+]([O-])c1sccc1C(Cc1ccc(N2CCC[C@H]2CO)nc1)S(=O)(=O)Oc1ccc(N(CCCl)CCCl)cc1 (stereo partly drawn) [TH-1430] | – | – | 500 | 300 | 0.6 | – | – | – |
| CN(CCO)c1ccc(CC(c2ccsc2[N+](=O)[O-])S(=O)(=O)Oc2ccc(N(CCCl)CCCl)cc2)cn1 (stereo not drawn) [TH-1434] | – | – | 83 | 50 | 0.6 | – | – | – |
| O=[N+]([O-])c1sccc1C(Cc1ccc(O[C@@H]2CCC[C@H]2O)nc1)S(=O)(=O)Oc1ccc(N(CCCl)CCCl)cc1 (stereo partly drawn) [TH-1452] | – | – | 55 | 110 | 2 | – | – | – |
| O=[N+]([O-])c1sccc1C(Cc1ccc2nn(CCO)nc2c1)S(=O)(=O)Oc1ccc(N(CCCl)CCCl)cc1 (stereo not drawn) [TH-1458] | – | – | 60 | 30 | 0.5 | – | – | – |
| C[C@H](O)C(=O)Nc1ccc(CC(c2ccsc2[N+](=O)[O-])S(=O)(=O)Oc2ccc(N(CCCl)CCCl)cc2)cc1 (stereo partly drawn) [TH-1468] | – | – | 75 | 30 | 0.4 | – | – | – |
| COCC(=O)Nc1ccc(CC(c2ccsc2[N+](=O)[O-])S(=O)(=O)Oc2ccc(N(CCCl)CCCl)cc2)cn1 (stereo not drawn) [TH-1477] | – | – | 43 | 13 | 0.3 | – | – | – |
| C[C@H](O)[C@H](C)Oc1ccc(CC(c2ccsc2[N+](=O)[O-])S(=O)(=O)Oc2ccc(N(CCCl)CCCl)cc2)cn1 (stereo partly drawn) [TH-1486] | – | – | 36 | 36 | 1 | – | – | – |
